Laboratory results from ChEMBL document CHEMBL1201862, “PubChem BioAssay data set” (2004).
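Dose response: 5 concentrations. Exposure: 48 h. Format: 96-well plates. Endpoint: linear interpolation; highest concentration if not reached. Here, GI50 denotes the concentration required for 50% inhibition of growth.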 The source made the active and inactive calls. Rule as the data show it: active = GI50 up to about 1.1 µM and inactive = higher.

Tests used:
Experiment in all cases: NCI tumour cell line growth inhibition, 48 h
[1] = test system: A549
[2] = test system: ACHN
[3] = test system: CCRF-CEM
[4] = test system: DU-145
[5] = test system: EKVX
[6] = test system: HCC 2998
[7] = test system: HCT-116
[8] = test system: HCT-15
[9] = test system: HL-60
[10] = test system: HOP-62
[11] = test system: Hs-578T
[12] = test system: K562
[13] = test system: KM12
[14] = test system: LOX IMVI
[15] = test system: M14
[16] = test system: MOLT-4
[17] = test system: NCI-H226
[18] = test system: NCI-H23
[19] = test system: NCI-H522
[20] = test system: NCI/ADR-RES
[21] = test system: OVCAR-3
[22] = test system: OVCAR-8
[23] = test system: PC-3
[24] = test system: RXF 393
[25] = test system: SF-268
[26] = test system: SF-295
[27] = test system: SF-539
[28] = test system: SK-MEL-5
[29] = test system: SN12C
[30] = test system: SNB-19
[31] = test system: SNB-75
[32] = test system: T47D
[33] = test system: U-251
[34] = test system: UACC-257
[35] = test system: UACC-62
[36] = test system: UO-31
[37] = test system: 786-0
[38] = test system: A498
[39] = test system: CAKI-1
[40] = test system: COLO 205
[41] = test system: HOP-92
[42] = test system: HT-29
[43] = test system: MCF7
[44] = test system: MDA-MB-231
[45] = test system: MDA-MB-435
[46] = test system: OVCAR-4
[47] = test system: OVCAR-5
[48] = test system: RPMI-8226
[49] = test system: SK-MEL-28
[50] = test system: SK-MEL-2
[51] = test system: SK-OV-3
[52] = test system: SR
[53] = test system: SW-620
[54] = test system: TK-10
[55] = test system: IGROV-1
[56] = test system: MDA-N
[57] = test system: Malme-3M

Measured: GI50

Cc1cccc(C(O)c2ccncc2)c1O (stereo not given)
inactive: [1] > 100 µM | [2] > 100 µM | [3] > 100 µM | [4] > 100 µM | [5] > 100 µM | [6] > 100 µM | [7] > 100 µM | [9] > 100 µM | [10] > 100 µM | [11] > 100 µM | [12] > 100 µM | [13] > 100 µM | [14] > 100 µM | [15] > 100 µM | [16] > 100 µM | [17] > 100 µM | [18] > 100 µM | [19] > 100 µM | [20] > 100 µM | [21] > 100 µM | [22] > 100 µM | [23] > 100 µM | [24] 91.6 µM | [25] > 100 µM | [26] > 100 µM | [27] > 100 µM | [28] > 100 µM | [29] > 100 µM | [30] > 100 µM | [31] 76.6 µM | [32] 12.6 µM | [33] > 100 µM | [34] > 100 µM | [35] 25.8 µM | [36] > 100 µM
> 100 µM: [8]

O=C1CC(c2cccc(Cl)c2)n2cccc21 (stereo not given)
inactive: [37] > 100 µM | [38] > 100 µM | [1] > 100 µM | [2] > 100 µM | [39] 54.6 µM | [3] > 100 µM | [40] > 100 µM | [4] > 100 µM | [6] 88.7 µM | [7] > 100 µM | [9] 32.8 µM | [10] > 100 µM | [41] 65.3 µM | [42] > 100 µM | [11] 31.8 µM | [12] 61.4 µM | [13] 77.3 µM | [14] > 100 µM | [15] > 100 µM | [43] > 100 µM | [44] > 100 µM | [45] > 100 µM | [16] 70 µM | [17] > 100 µM | [18] > 100 µM | [20] > 100 µM | [21] > 100 µM | [46] > 100 µM | [47] > 100 µM | [22] > 100 µM | [23] 49.5 µM | [48] > 100 µM | [24] > 100 µM | [25] 74.6 µM | [26] > 100 µM | [27] > 100 µM | [49] > 100 µM | [50] 37.8 µM | [51] > 100 µM | [29] > 100 µM | [30] > 100 µM | [31] 47.8 µM | [52] 90.2 µM | [53] > 100 µM | [32] 44.2 µM | [54] > 100 µM | [33] > 100 µM | [34] > 100 µM | [35] > 100 µM | [36] 26.5 µM
> 100 µM: [8]

CCOC(=O)CSc1[nH]c(NC(=S)Nc2ccccc2)c(C(N)=O)c1C(N)=O
> 10 µM: [8]
inactive: [37] > 10 µM | [1] > 10 µM | [39] > 10 µM | [3] 4.95 µM | [40] > 10 µM | [4] > 10 µM | [5] > 10 µM | [6] 6.28 µM | [9] 2.32 µM | [10] > 10 µM | [41] > 10 µM | [42] > 10 µM | [55] > 10 µM | [12] > 10 µM | [13] > 10 µM | [14] > 10 µM | [15] > 10 µM | [43] > 10 µM | [44] > 10 µM | [45] > 10 µM | [56] > 10 µM | [16] 6.21 µM | [57] > 10 µM | [18] > 10 µM | [46] > 10 µM | [22] > 10 µM | [23] > 10 µM | [48] > 10 µM | [24] > 10 µM | [25] > 10 µM | [26] > 10 µM | [49] > 10 µM | [28] > 10 µM | [51] > 10 µM | [29] > 10 µM | [31] > 10 µM | [52] 3.67 µM | [53] > 10 µM | [32] > 10 µM | [54] > 10 µM | [34] > 10 µM | [35] > 10 µM

c1ccc(COC[C@H]2O[C@@H](c3ccccc3)C[C@@H](OCc3ccccc3)C2OCc2ccccc2)cc1 (stereo not given in full)
inactive: [37] > 10 µM | [1] > 10 µM | [39] > 10 µM | [3] > 10 µM | [40] > 10 µM | [4] > 10 µM | [5] > 10 µM | [6] > 10 µM | [10] > 10 µM | [55] > 10 µM | [13] > 10 µM | [15] > 10 µM | [43] > 10 µM | [44] > 10 µM | [56] > 10 µM | [16] > 10 µM | [57] > 10 µM | [18] > 10 µM | [22] > 10 µM | [23] > 10 µM | [48] > 10 µM | [24] > 10 µM | [25] > 10 µM | [26] > 10 µM | [49] > 10 µM | [28] > 10 µM | [51] > 10 µM | [29] > 10 µM | [31] > 10 µM | [52] > 10 µM | [53] > 10 µM | [32] > 10 µM | [54] > 10 µM | [35] > 10 µM
> 10 µM: [8]
